Test results reported in patent US11220508B2, “TYK2 inhibitors and uses thereof” (Nimbus Lakshmi, Inc., priority 2016, dated 2022).

Tests used:
[1] = target: TYK2 JH1 kinase function (Homo sapiens (Human), UniProt P29597); assay: Tyk2 radioactive kinase assay; assay type: biochemical; conditions: active kinase assay, ATP at 10 μM
Procedure: (§1) Peptide substrate, [KKSRGDYMTMQIG], (20 μM) is prepared in reaction buffer (20 mM Hepes pH 7.5, 10 mM MgCl2, 1 mM EGTA, 0.02% Brij35, 0.02 mg/mL BSA, 0.1 mM […], 2 mM DTT, 1% DMSO. TYK2 (Invitrogen) kinase is added, followed by compounds in DMSO. 33PATP is added to initiate the reaction in ATP at 10 μM. Kinase reaction is incubated for 120 min at room temp and reactions are spotted onto P81 ion exchange paper (Whatman #3698-915), and then washed extensively in 0.75% phosphoric acid, prior to reading the radioactivity counts. For JAK2 (Invitrogen) kinase assay the peptide substrate poly[Glu:Tyr] (4:1), 0.2 mg/ml is used, in the reaction carried out the same as for TYK2.

[2] = target: human TYK2 (JH2domain-pseudokinase) (Homo sapiens (Human), UniProt P29597); assay: TYK2 JH2 domain binding assay (KINOMEscan, DiscoveRx); conditions: Table 4, JH2 binding assay
[3] = target: JAK2 JH1 kinase function (Homo sapiens (Human), UniProt O60674); assay: JAK2 radioactive kinase assay; assay type: biochemical; conditions: active kinase assay, ATP at 10 μM
Procedure: as §1

Chain of TYK2 JH1 kinase function (P29597 whole entry): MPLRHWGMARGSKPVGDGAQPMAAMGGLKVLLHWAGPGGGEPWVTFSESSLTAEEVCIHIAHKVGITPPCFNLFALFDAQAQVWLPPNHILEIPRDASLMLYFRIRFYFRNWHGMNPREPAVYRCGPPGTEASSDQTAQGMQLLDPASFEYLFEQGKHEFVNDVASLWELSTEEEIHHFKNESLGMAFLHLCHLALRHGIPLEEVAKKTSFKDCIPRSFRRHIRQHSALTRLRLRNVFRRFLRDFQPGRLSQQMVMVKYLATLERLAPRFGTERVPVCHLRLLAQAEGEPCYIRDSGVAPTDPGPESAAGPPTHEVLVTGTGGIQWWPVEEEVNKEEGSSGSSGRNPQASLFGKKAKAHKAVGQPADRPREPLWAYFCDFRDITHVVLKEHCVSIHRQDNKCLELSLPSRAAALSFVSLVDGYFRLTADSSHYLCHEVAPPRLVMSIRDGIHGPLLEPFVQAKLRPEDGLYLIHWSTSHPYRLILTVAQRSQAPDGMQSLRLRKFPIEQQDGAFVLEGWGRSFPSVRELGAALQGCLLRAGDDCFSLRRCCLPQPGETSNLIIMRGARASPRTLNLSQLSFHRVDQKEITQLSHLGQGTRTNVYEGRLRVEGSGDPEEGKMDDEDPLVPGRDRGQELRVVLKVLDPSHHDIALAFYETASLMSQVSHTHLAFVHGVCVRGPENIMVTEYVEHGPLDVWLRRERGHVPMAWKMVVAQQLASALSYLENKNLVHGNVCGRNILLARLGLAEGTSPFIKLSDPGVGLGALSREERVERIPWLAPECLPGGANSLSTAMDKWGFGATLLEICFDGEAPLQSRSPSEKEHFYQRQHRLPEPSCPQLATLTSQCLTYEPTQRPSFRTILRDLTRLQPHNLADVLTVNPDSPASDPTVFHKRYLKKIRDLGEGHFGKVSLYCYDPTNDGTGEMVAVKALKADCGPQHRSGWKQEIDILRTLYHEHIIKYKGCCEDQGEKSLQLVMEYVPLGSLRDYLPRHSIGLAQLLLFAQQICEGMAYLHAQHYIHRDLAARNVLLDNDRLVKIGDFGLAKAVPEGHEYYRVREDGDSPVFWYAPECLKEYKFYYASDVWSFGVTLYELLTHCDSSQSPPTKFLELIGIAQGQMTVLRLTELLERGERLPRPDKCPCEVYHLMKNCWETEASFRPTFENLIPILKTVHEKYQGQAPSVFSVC
Chain of JAK2 JH1 kinase function (O60674 whole entry): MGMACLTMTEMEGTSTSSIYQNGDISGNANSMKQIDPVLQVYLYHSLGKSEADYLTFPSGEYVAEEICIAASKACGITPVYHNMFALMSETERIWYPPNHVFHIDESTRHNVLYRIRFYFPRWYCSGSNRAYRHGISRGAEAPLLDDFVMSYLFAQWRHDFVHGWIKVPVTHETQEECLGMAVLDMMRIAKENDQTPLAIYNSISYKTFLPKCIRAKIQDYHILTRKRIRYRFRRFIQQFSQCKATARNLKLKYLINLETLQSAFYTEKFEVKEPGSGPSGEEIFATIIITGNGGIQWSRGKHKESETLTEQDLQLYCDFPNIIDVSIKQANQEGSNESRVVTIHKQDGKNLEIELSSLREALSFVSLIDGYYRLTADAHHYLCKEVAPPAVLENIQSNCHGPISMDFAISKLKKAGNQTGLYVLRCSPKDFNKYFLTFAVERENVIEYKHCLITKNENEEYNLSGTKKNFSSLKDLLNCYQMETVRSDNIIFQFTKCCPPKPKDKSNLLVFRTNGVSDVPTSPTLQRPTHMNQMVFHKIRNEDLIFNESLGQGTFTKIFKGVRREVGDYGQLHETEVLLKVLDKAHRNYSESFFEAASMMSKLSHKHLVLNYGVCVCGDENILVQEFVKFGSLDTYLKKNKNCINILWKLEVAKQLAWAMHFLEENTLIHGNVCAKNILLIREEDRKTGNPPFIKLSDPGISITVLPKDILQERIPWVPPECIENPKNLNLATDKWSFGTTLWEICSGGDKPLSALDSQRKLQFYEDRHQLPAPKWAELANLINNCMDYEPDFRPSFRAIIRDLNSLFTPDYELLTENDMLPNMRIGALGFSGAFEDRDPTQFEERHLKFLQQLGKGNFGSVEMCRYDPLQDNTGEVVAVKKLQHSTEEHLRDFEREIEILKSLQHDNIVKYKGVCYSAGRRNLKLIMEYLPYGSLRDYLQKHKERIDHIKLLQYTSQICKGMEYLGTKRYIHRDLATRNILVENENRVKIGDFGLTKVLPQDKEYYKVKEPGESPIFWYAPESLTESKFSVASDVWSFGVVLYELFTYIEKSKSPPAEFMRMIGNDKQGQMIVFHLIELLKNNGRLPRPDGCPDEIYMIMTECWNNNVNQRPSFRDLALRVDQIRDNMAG
Chain of human TYK2 (JH2domain-pseudokinase) (P29597 556-888): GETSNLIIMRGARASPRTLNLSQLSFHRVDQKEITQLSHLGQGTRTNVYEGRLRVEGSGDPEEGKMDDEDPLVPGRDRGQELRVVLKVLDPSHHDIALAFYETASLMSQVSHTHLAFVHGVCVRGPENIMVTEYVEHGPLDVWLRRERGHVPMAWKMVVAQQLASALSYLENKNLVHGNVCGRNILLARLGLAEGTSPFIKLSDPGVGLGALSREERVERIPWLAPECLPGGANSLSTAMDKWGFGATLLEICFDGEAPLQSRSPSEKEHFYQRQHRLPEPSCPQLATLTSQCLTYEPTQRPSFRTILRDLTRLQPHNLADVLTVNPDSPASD

| SMILES | inhibitory activity against TYK2 JH1 kinase function [1] | Kd [2] | inhibitory activity against JAK2 JH1 kinase function [3] |
| --- | --- | --- | --- |
| COc1c(Nc2cc(NC(=O)C3CC3)nc3[nH]n(C)c(=O)c23)cccc1-c1nnn(C)n1 [Compound I-1, N-(4-((2-methoxy-3-(2-methyl-2H-tetrazol-5-yl)phenyl)amino)-2-methyl-3-oxo-2,3-dihydro-1H-pyrazolo[3,4-b]pyridin-6-yl)cyclopropanecarboxamide] | no detectable inhibitory activity |  |  |
| COCc1ccnc(Nc2cc(Nc3cccc(-c4nnn(C)n4)c3OC)c3c(=O)n(C)[nH]c3n2)c1 [Compound I-2, 4-((2-methoxy-3-(2-methyl-2H-tetrazol-5-yl)phenyl)amino)-6-((4-(methoxymethyl)pyridin-2-yl)amino)-2-methyl-1,2-dihydro-3H-pyrazolo[3,4-b]pyridin-3-one] | no detectable inhibitory activity |  |  |
| COc1c(Cl)cccc1Nc1cc(Nc2cccc(N3CC(OC)C3)n2)nc2[nH]n(C)c(=O)c12 [Compound I-116, 4-((3-chloro-2-methoxyphenyl)amino)-6-((6-(3-methoxyazetidin-1-yl)pyridin-2-yl)amino)-2-methyl-1,2-dihydro-3H-pyrazolo[3,4-b]pyridin-3-one] |  | > 0.01 µM |  |
| COc1c(Nc2cc(NC(=O)C3CC3)ncc2-c2ncc(F)s2)cccc1-c1nnn(C)n1 [VIII-2, N-(5-(5-fluorothiazol-2-yl)-4-((2-methoxy-3-(2-methyl-2H-tetrazol-5-yl)phenyl)amino)pyridin-2-yl)cyclopropanecarboxamide] | no detectable inhibitory activity |  | no detectable inhibitory activity |

Continued, values first:

| inhibitory activity against TYK2 JH1 kinase function [1] | Kd [2] | inhibitory activity against JAK2 JH1 kinase function [3] | SMILES |
| --- | --- | --- | --- |
| no detectable inhibitory activity |  | no detectable inhibitory activity | COc1c(Nc2cc(NC(=O)C3CC3)ncc2-c2ncc(Cl)s2)cccc1-c1nnn(C)n1 [VIII-1, N-(5-(5-chlorothiazol-2-yl)-4-((2-methoxy-3-(2-methyl-2H-tetrazol-5-yl)phenyl)amino)pyridin-2-yl)cyclopropanecarboxamide] |
| no detectable inhibitory activity |  | no detectable inhibitory activity | COc1c(Nc2cc(NC(=O)C3CC3)ncc2-c2nnc(C(F)(F)F)o2)cccc1-c1ncn(C)n1 [VIII-3, N-(4-((2-methoxy-3-(1-methyl-1H-1,2,4-triazol-3-yl)phenyl)amino)-5-(5-(trifluoromethyl)-1,3,4-oxadiazol-2-yl)pyridin-2-yl)cyclopropanecarboxamide] |
| no detectable inhibitory activity |  | no detectable inhibitory activity | COC(=O)c1nnc(-c2cnc(NC(=O)C3CC3)cc2Nc2cccc(-c3ncn(C)n3)c2OC)o1 [VIII-4, methyl 5-(6-(cyclopropanecarboxamido)-4-((2-methoxy-3-(1-methyl-1H-1,2,4-triazol-3-yl)phenyl)amino)pyridin-3-yl)-1,3,4-oxadiazole-2-carboxylate] |
